Data: patent publication US20220089568A1 (Janssen Biotech, Inc., priority 2019, published 2022)

Experiments:
MOLM-13 cells = test: MOLM-13 Cellular Assay; assay type: cell-based; settings: Homo sapiens, 72 hours exposure, cell viability by CellTiter-Glo
Experimental: The day prior to assay set-up, cells were pelleted, resuspended in fresh media, counted, and cells were plated at 0.4×10^6 cell/mL in a T150 flask. […] Cells were exposed to different concentrations of test compounds at 37° C., 5% CO2 for 72 hours immediately after seeding.

human DHODH = target: T1, human DHODH (Homo sapiens, UniProt Q02127); test: DHODH Enzymatic Assay; assay type: biochemical; settings: purified human DHODH; DCIP absorbance, end-point mode
T1 construct: purchased Proteros PR-0044
Method in brief: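 Purified human DHODH activity read as absorbance of DCIP, the terminal electron acceptor, in […] pH 7.5, 150 mM NaCl, 0.5 mM EDTA, 0.1% Triton X-100. Reaction started with a substrate mix of 20 mM DHO, 5 mM CoQ6 and 1 mM DCIP in assay buffer.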

T1 sequence (Q02127 whole entry): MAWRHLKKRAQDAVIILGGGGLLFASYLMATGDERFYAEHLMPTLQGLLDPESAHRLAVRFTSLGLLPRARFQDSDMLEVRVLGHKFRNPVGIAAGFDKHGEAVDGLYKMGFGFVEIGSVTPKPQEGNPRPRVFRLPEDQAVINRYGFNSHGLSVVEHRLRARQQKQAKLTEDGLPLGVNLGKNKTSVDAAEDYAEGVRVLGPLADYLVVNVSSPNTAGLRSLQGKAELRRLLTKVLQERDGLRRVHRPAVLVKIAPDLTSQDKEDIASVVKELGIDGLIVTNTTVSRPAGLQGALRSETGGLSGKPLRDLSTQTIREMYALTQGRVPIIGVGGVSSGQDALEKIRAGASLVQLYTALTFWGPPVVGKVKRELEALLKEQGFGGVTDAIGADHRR

Row | SMILES | EC50 (MOLM-13 cells) [nM] | EC50 (human DHODH) [nM]
1 | CCn1c(CO)nn(-c2nc(O[C@@H](C)C(F)(F)F)c(C(=O)Nc3nc(C)ccc3F)cc2F)c1=O [Example 39, (S)-6-(4-Ethyl-3-(hydroxymethyl)-5-oxo-4,5-dihydro-1H-1,2,4-triazol-1-yl)-5-fluoro-N-(3-fluoro-6-methylpyridin-2-yl)-2-((1,1,1-trifluoropropan-2-yl)oxy)nicotinamide] | 16.5 | 14.1
2 | CCn1c(CO)nn(-c2nc(O[C@@H](C)C(F)(F)F)c(C(=O)Nc3ccc(C)nc3Cl)cc2F)c1=O [Example 77, N-(2-Chloro-6-methyl-3-pyridyl)-6-[4-ethyl-3-(hydroxymethyl)-5-oxo-1,2,4-triazol-1-yl]-5-fluoro-2-[(1S)-2,2,2-trifluoro-1-methyl-ethoxy]pyridine-3-carboxamide] | 13.2 | 14
3 | CCn1c(CO)nn(-c2nc(O[C@@H](C)C(F)(F)F)c(C(=O)Nc3c[nH]nc3C#N)cc2F)c1=O [Example 100, N-(3-Cyano-1H-pyrazol-4-yl)-6-[4-ethyl-3-(hydroxymethyl)-5-oxo-1,2,4-triazol-1-yl]-5-fluoro-2-[(1S)-2,2,2-trifluoro-1-methyl-ethoxy]pyridine-3-carboxamide] | 19 | > 100
4 | CCn1c(CO)nn(-c2nc(O[C@@H](C)C(F)(F)F)c(C(=O)Nc3c(OC)ccnc3Cl)cc2F)c1=O [Example 44, (S)-N-(2-Chloro-4-methoxypyridin-3-yl)-6-(4-ethyl-3-(hydroxymethyl)-5-oxo-4,5-dihydro-1H-1,2,4-triazol-1-yl)-5-fluoro-2-((1,1,1-trifluoropropan-2-yl)oxy)nicotinamide] | 10.7 | 3.9
5 | CCn1c(CO)nn(-c2nc(O[C@@H](C)C(F)(F)F)c(C(=O)Nc3ncnc(C)c3Cl)cc2F)c1=O [Example 60, (S)-N-(5-Chloro-6-methylpyrimidin-4-yl)-6-(4-ethyl-3-(hydroxymethyl)-5-oxo-4,5-dihydro-1H-1,2,4-triazol-1-yl)-5-fluoro-2-((1,1,1-trifluoropropan-2-yl)oxy)nicotinamide] | > 100 | 254
6 | CCn1c(CO)nn(-c2nc(O[C@@H](C)C(F)(F)F)c(C(=O)Nc3ncc(OC)cc3Cl)cc2F)c1=O [Example 118, N-(3-Chloro-5-methoxy-2-pyridyl)-6-[4-ethyl-3-(hydroxymethyl)-5-oxo-1,2,4-triazol-1-yl]-5-fluoro-2-[(1S)-2,2,2-trifluoro-1-methyl-ethoxy]pyridine-3-carboxamide] | 6.38 | 4.64
7 | CCn1c(CO)nn(-c2nc(O[C@@H](C)C(F)(F)F)c(C(=O)Nc3c(C)ccnc3C)cc2F)c1=O [Example 18, (S)-N-(2,4-Dimethylpyridin-3-yl)-6-(4-ethyl-3-(hydroxymethyl)-5-oxo-4,5-dihydro-1H-1,2,4-triazol-1-yl)-5-fluoro-2-((1,1,1-trifluoropropan-2-yl)oxy)nicotinamide] | 12.8 | 3.7
8 | CCn1c(CO)nn(-c2nc(O[C@@H](C)C(F)(F)F)c(C(=O)Nc3ccccc3F)cc2F)c1=O [Example 2, (S)-6-(4-Ethyl-3-(hydroxymethyl)-5-oxo-4,5-dihydro-1H-1,2,4-triazol-1-yl)-5-fluoro-N-(2-fluorophenyl)-2-((1,1,1-trifluoropropan-2-yl)oxy)nicotinamide] | 5.2 | 6.1
9 | CCn1c(CO)nn(-c2nc(OC3CC(F)(F)C3(F)F)c(C(=O)Nc3c(F)cccc3Cl)cc2F)c1=O (racemic) [Example 8, Racemic-N-(2-Chloro-6-fluorophenyl)-6-(4-ethyl-3-(hydroxymethyl)-5-oxo-4,5-dihydro-1H-1,2,4-triazol-1-yl)-5-fluoro-2-(2,2,3,3-tetrafluorocyclobutoxy)nicotinamide] | 15.7 | 22.1
10 | CCn1c(CO)nn(-c2nc(O[C@@H](C)C(F)(F)F)c(C(=O)Nc3ncnc(C)c3C)cc2F)c1=O [Example 43, (S)-N-(5,6-Dimethylpyrimidin-4-yl)-6-(4-ethyl-3-(hydroxymethyl)-5-oxo-4,5-dihydro-1H-1,2,4-triazol-1-yl)-5-fluoro-2-((1,1,1-trifluoropropan-2-yl)oxy)nicotinamide] | > 100 | 815
11 | CCCn1c(CO)nn(-c2nc(O[C@@H](C)C(F)(F)F)c(C(=O)Nc3c(C)ccnc3Cl)cc2F)c1=O [Example 84, N-(2-Chloro-4-methyl-3-pyridyl)-5-fluoro-6-[3-(hydroxymethyl)-5-oxo-4-propyl-1,2,4-triazol-1-yl]-2-[(1S)-2,2,2-trifluoro-1-methyl-ethoxy]pyridine-3-carboxamide] | 4.8 | 5.1
12 | CCn1c(CO)nn(-c2nc(O[C@@H](C)C(F)(F)F)c(C(=O)Nc3ccnnc3OC)cc2F)c1=O [Example 109, 6-[4-Ethyl-3-(hydroxymethyl)-5-oxo-1,2,4-triazol-1-yl]-5-fluoro-N-(3-methoxypyridazin-4-yl)-2-[(1S)-2,2,2-trifluoro-1-methyl-ethoxy]pyridine-3-carboxamide] | > 100 | > 100
13 | CCn1c(CO)nn(-c2nc(O[C@@H](C)C(F)(F)F)c(C(=O)Nc3ncsc3C)cc2F)c1=O [Example 32, (S)-6-(4-Ethyl-3-(hydroxymethyl)-5-oxo-4,5-dihydro-1H-1,2,4-triazol-1-yl)-5-fluoro-N-(5-methylthiazol-4-yl)-2-((1,1,1-trifluoropropan-2-yl)oxy)nicotinamide] | 25.3 | 13.6
14 | CCn1c(CO)nn(-c2nc(O[C@@H](C)C(F)(F)F)c(C(=O)Nc3c[nH]nc3OC)cc2F)c1=O [Example 58, (S)-6-(4-Ethyl-3-(hydroxymethyl)-5-oxo-4,5-dihydro-1H-1,2,4-triazol-1-yl)-5-fluoro-N-(3-methoxy-1H-pyrazol-4-yl)-2-((1,1,1-trifluoropropan-2-yl)oxy)nicotinamide] | 23.2 | 5.8
15 | CCn1c(CO)nn(-c2nc(O[C@@H](C)C(F)(F)F)c(C(=O)Nc3cc(C)ncc3F)cc2F)c1=O [Example 37, (S)-6-(4-Ethyl-3-(hydroxymethyl)-5-oxo-4,5-dihydro-1H-1,2,4-triazol-1-yl)-5-fluoro-N-(5-fluoro-2-methylpyridin-4-yl)-2-((1,1,1-trifluoropropan-2-yl)oxy)nicotinamide] | > 100 | 200
16 | CCn1c(CO)nn(-c2nc(O[C@@H](C)C(F)(F)F)c(C(=O)Nc3cnsc3)cc2F)c1=O [Example 12, (S)-6-(4-Ethyl-3-(hydroxymethyl)-5-oxo-4,5-dihydro-1H-1,2,4-triazol-1-yl)-5-fluoro-N-(isothiazol-4-yl)-2-((1,1,1-trifluoropropan-2-yl)oxy)nicotinamide] | 672 | 324

These reach a lower EC50 (MOLM-13 cells). Values come first.

Row | EC50 (MOLM-13 cells) [nM] | EC50 (human DHODH) [nM] | SMILES
17 | 0.303 | 4.12 | CCn1c(CO)nn(-c2nc(O[C@@H](C)C(F)(F)F)c(C(=O)Nc3c(Cl)n[nH]c3C(F)(F)F)cc2F)c1=O [Example 112, N-[3-Chloro-5-(trifluoromethyl)-1H-pyrazol-4-yl]-6-[4-ethyl-3-(hydroxymethyl)-5-oxo-1,2,4-triazol-1-yl]-5-fluoro-2-[(1S)-2,2,2-trifluoro-1-methyl-ethoxy]pyridine-3-carboxamide]
18 | < 0.169 | 0.246 | CCn1c(CO)nn(-c2nc(O[C@@H](C)C(F)(F)F)c(C(=O)Nc3ccccc3C)cc2F)c1=O [Example 120, 6-[4-Ethyl-3-(hydroxymethyl)-5-oxo-1,2,4-triazol-1-yl]-5-fluoro-N-(o-tolyl)-2-[(1S)-2,2,2-trifluoro-1-methyl-ethoxy]pyridine-3-carboxamide]
19 | 0.371 | 3.31 | CCn1c(CO)nn(-c2nc(O[C@@H](C)C(F)(F)F)c(C(=O)Nc3c(C(F)F)n[nH]c3C)cc2F)c1=O [Example 124, N-[3-(Difluoromethyl)-5-methyl-1H-pyrazol-4-yl]-6-[4-ethyl-3-(hydroxymethyl)-5-oxo-1,2,4-triazol-1-yl]-5-fluoro-2-[(1S)-2,2,2-trifluoro-1-methyl-ethoxy]pyridine-3-carboxamide]
20 | 2.34 | 1.16 | CCn1c(CO)nn(-c2nc(OC(C)C)c(C(=O)Nc3c(C)cnc(OC)c3Cl)cc2F)c1=O [Example 88, N-(3-Chloro-2-methoxy-5-methyl-4-pyridyl)-6-[4-ethyl-3-(hydroxymethyl)-5-oxo-1,2,4-triazol-1-yl]-5-fluoro-2-isopropoxy-pyridine-3-carboxamide]
21 | 0.435 | 0.639 | CCCn1c(CF)nn(-c2nc(O[C@@H](C)C(F)(F)F)c(C(=O)Nc3c(C)ccnc3Cl)cc2F)c1=O [Example 92, N-(2-Chloro-4-methyl-3-pyridyl)-5-fluoro-6-[3-(fluoromethyl)-5-oxo-4-propyl-1,2,4-triazol-1-yl]-2-[(1S)-2,2,2-trifluoro-1-methyl-ethoxy]pyridine-3-carboxamide]
22 | 1.11 | 3.69 | CCn1c(CO)nn(-c2nc(O[C@@H](C)C(F)(F)F)c(C(=O)Nc3c(F)ccnc3OC)cc2F)c1=O [Example 125, 6-[4-Ethyl-3-(hydroxymethyl)-5-oxo-1,2,4-triazol-1-yl]-5-fluoro-N-(4-fluoro-2-methoxy-3-pyridyl)-2-[(1S)-2,2,2-trifluoro-1-methyl-ethoxy]pyridine-3-carboxamide]
23 | 0.208 | 2.46 | CCn1c(CO)nn(-c2nc(O[C@@H](C)C(F)(F)F)c(C(=O)Nc3c(Cl)n[nH]c3Cl)cc2F)c1=O [Example 123, N-(3,5-Dichloro-1H-pyrazol-4-yl)-6-[4-ethyl-3-(hydroxymethyl)-5-oxo-1,2,4-triazol-1-yl]-5-fluoro-2-[(1S)-2,2,2-trifluoro-1-methyl-ethoxy]pyridine-3-carboxamide]
